Calls of active or inactive are those of the source.
Legend:
Beta-galactosidase = Beta-galactosidase (Escherichia coli, UniProt Q8VNN2); experiment: Dose response counterscreen for EBI2 assay utilizing the enzyme, b-galactosidase.; format: functional
P388/ADR = experiment: cells; format: functional; settings: Mus musculus
P388 = experiment: cells; format: functional; settings: Mus musculus
SN12K1 = experiment: cells; format: functional; settings: Homo sapiens
[1] = blockers of HIV-1 envelope-mediated cell-cell fusion – cherry-pick, dose response (AID 652057); format: functional, cell-based
[2] = viability loss in CEM21 cells – cell-based, CellTiter-Glo luminescence, cherry-picked, cytotoxicity control for viral fusion inhibitor project, dose response (AID 652042); format: functional;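 note: potency for signal decrease meaning cytotoxicity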
[3] = off-target signal loss in HeLa-CEM21 co-culture – HeLa F-luc CTL cells, cherry-picked, counter-screen for HIV-1 Env fusion inhibitor project, dose response (AID 652040); format: functional, cell-based;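 note: potency for signal decrease marking cytotoxic or nonspecific inhibition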
[4] = blockers of HIV-1 ZM109 envelope-driven cell-cell fusion – HeLa effector, CEM target cells, luciferase, cherry-pick, dose response (AID 652058); format: functional, cell-based;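 note: luciferase signal from HIV-1 Env mediated cell-cell fusion of effector and target cells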
[5] = HIV-1 AD8 envelope cell-cell fusion blockers – cherry-pick, dose response (AID 652062); format: functional, cell-based;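 note: luciferase signal from cell-cell fusion driven by HIV-1 clade B AD8 Env; potency is for inhibitors of fusion seen as a drop in luminescence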
[6] = microbe, parasite or virus in culture; format: functional; settings: Mycobacterium tuberculosis
[7] = target: T1, Sentrin-specific protease 7 (Homo sapiens, UniProt Q9BQF6); format: functional;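 note: Luminescence-based dose-response confirmation of ultra-high-throughput screening hits, measuring inhibition of SENP7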
T1 sequence (Q9BQF6 whole entry): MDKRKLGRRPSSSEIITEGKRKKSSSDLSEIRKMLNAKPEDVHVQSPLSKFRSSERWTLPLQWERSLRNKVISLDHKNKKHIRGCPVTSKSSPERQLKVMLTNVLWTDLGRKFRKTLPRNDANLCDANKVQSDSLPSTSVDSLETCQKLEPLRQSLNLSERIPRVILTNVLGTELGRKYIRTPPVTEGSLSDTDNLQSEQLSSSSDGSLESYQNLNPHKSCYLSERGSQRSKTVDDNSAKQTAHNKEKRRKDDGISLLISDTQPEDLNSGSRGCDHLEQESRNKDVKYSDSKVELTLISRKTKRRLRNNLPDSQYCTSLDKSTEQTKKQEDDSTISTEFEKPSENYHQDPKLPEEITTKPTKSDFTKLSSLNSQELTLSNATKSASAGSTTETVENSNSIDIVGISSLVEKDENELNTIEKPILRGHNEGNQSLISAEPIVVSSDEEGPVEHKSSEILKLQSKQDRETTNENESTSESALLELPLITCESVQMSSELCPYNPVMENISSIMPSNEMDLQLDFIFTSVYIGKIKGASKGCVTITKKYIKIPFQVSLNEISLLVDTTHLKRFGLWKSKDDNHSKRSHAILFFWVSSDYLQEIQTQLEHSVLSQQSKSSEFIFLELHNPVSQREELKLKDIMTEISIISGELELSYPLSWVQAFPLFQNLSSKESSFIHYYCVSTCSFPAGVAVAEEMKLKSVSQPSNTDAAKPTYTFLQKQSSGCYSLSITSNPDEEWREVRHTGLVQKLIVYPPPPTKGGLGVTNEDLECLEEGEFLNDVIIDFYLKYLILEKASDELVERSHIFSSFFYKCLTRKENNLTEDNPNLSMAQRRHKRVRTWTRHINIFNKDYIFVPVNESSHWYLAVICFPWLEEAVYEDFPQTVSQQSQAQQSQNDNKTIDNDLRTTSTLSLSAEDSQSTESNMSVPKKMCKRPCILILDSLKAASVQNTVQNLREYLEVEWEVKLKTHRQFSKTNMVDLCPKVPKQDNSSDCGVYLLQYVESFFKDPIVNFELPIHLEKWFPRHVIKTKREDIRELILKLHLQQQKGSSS

[8] = target: T2, Sentrin-specific protease 8 (Homo sapiens, UniProt Q96LD8); format: functional;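 note: luminescence read-out of SENP8 inhibition, dose-response confirmation following an ultra-high-throughput screen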
T2 sequence (Q96LD8 whole entry): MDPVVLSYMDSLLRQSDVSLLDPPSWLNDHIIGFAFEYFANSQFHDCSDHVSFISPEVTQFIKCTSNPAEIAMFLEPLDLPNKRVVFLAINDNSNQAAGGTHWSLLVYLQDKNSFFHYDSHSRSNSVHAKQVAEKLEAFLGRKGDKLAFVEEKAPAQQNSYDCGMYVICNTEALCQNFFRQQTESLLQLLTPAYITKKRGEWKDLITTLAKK

[9] = target: T3, Sentrin-specific protease 6 (Homo sapiens, UniProt Q9GZR1); format: functional;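 note: Luminescence-based dose-response confirmatory assay of SENP6 inhibition, following up an ultra-high-throughput screen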
T3 sequence (Q9GZR1 whole entry): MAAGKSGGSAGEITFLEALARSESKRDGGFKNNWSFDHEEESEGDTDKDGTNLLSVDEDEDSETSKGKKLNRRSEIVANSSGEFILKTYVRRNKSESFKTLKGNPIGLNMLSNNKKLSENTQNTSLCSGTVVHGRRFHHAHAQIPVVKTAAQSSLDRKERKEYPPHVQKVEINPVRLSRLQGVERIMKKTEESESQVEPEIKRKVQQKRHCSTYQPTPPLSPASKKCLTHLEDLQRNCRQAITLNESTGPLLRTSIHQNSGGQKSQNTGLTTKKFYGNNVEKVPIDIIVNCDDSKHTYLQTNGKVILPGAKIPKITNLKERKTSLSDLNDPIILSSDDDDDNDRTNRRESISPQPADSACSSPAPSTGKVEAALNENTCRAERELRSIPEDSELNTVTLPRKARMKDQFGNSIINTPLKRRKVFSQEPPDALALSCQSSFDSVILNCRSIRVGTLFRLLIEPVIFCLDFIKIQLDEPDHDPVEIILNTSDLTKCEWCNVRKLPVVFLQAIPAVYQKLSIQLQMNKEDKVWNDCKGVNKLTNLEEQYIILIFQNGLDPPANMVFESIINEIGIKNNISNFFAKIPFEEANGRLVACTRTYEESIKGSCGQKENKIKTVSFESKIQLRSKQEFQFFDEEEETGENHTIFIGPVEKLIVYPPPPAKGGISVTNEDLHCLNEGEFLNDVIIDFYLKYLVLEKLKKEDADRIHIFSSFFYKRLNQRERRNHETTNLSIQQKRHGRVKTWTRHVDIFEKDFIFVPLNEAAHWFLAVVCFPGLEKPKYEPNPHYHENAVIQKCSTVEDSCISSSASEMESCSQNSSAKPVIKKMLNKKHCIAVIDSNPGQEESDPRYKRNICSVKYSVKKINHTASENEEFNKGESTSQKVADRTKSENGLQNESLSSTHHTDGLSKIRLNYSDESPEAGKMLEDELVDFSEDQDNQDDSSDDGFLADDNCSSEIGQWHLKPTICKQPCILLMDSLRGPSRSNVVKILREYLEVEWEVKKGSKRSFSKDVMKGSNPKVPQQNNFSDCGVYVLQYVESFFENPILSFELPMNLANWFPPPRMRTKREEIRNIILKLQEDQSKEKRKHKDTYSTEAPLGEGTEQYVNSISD

Caspase-3 = target: T4, Caspase-3 (Homo sapiens, UniProt P42574); format: functional;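 note: Dose-response selectivity test against caspase-3 for candidate inhibitors of sentrin-specific proteases (SENPs)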
T4 sequence (P42574 whole entry): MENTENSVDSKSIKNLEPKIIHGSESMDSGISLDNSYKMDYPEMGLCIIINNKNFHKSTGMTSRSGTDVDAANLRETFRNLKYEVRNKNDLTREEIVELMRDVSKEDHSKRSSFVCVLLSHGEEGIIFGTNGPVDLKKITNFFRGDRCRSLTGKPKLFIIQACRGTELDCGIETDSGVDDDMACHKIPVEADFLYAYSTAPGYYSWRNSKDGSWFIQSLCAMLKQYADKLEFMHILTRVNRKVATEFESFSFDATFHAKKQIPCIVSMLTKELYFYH

[10] = general mammalian cell viability loss – activator set, cherry-pick, cytotoxicity control for miR-122 modulator project, dose response (AID 720690); format: functional, cell-based;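 note: HEK293T human cells scored for general mammalian cytotoxicity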
[11] = activation of miR-122 Renilla sensor silencing – cell-based, Huh7 psiCHECK-miR122, Renilla luciferase, cherry-picked, dose response (AID 651956); format: functional;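 note: huh7 hepatoma cells stably carrying a psiCHECK-2 miR-122 sensor plasmid; renilla luciferase signal reporting endogenous miR-122 activity after 48 h compound exposure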
Large T antigen = Large T antigen (Simian virus 40, UniProt P03070); format: functional, Betapolyomavirus macacae;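 note: Confirmatory-stage PubChem screen for compounds that inhibit SV40 T antigen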
Leucine aminopeptidase = target: T5, Leucine aminopeptidase (Plasmodium falciparum 3D7, UniProt Q8IL11); experiment: P. falciparum M17LAP inhibitors, primary screen, biochemical, fluorogenic H-Leu-NHMec substrate, 1536-well (AID 1619); format: functional
T5 sequence (Q8IL11 whole entry): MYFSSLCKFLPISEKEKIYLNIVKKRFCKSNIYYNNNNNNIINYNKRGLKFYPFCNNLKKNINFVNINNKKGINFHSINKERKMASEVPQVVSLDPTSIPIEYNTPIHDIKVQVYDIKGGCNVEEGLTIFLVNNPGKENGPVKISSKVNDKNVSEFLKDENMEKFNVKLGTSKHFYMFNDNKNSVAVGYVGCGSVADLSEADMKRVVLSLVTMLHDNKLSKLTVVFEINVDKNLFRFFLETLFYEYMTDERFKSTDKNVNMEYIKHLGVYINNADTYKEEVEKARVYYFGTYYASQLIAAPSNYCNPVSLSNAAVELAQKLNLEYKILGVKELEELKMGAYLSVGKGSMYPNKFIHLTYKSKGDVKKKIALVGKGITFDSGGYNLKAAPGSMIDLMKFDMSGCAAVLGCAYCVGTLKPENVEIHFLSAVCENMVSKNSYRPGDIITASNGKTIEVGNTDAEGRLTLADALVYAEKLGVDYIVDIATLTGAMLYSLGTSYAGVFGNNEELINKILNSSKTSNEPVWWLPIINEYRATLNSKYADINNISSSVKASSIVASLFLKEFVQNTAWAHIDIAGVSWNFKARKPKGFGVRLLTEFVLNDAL

Beta-galactosidase, sequence (Q8VNN2 whole entry): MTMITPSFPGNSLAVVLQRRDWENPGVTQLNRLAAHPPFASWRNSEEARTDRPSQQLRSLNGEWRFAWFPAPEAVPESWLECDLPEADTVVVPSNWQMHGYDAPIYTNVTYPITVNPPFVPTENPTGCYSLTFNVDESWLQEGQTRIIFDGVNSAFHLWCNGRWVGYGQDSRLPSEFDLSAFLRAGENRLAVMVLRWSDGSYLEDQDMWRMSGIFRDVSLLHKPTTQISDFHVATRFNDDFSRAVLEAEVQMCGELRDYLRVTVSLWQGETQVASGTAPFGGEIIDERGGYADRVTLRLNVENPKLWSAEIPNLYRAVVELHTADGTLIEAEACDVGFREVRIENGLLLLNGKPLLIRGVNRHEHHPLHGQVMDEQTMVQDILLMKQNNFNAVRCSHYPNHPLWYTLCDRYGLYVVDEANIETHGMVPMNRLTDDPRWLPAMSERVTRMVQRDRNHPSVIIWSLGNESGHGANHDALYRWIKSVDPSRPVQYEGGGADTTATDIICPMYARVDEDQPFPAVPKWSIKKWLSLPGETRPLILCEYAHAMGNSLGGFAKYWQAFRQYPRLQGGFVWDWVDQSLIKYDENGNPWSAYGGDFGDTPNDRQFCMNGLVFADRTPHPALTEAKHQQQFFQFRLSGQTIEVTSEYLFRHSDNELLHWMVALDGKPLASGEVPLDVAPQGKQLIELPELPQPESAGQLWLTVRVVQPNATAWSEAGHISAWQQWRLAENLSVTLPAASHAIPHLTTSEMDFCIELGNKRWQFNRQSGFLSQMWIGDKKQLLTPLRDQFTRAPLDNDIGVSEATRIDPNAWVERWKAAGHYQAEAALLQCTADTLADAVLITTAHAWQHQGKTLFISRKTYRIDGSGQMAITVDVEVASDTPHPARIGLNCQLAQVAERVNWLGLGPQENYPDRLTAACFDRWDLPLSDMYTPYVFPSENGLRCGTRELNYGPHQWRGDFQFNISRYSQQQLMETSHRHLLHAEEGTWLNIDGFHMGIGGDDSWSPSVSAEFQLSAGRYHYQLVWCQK
Large T antigen, sequence (P03070 whole entry): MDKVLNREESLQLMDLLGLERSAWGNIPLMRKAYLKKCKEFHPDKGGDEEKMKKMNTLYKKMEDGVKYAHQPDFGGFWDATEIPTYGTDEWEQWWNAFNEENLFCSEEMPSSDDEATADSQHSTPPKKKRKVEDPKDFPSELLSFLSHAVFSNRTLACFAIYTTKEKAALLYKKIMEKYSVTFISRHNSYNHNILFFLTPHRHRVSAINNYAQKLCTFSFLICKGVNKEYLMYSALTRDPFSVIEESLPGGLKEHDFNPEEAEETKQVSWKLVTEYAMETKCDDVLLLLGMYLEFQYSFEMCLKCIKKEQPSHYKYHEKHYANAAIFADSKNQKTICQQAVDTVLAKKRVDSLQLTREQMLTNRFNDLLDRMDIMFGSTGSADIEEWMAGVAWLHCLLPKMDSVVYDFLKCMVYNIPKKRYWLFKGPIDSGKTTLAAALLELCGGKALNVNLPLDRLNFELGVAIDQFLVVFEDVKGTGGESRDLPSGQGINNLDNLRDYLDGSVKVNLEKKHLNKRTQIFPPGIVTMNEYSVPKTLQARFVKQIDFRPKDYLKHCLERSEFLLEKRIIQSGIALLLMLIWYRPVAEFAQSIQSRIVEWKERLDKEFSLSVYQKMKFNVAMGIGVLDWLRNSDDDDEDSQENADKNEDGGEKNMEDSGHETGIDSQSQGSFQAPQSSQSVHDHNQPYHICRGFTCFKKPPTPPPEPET

In the case of `Cc1[nH]c2ccc(C(=O)N3CCN(c4ccc(F)cc4)CC3)cc2c1C`, the IC50 (Beta-galactosidase) is reported as > 80 µM (inactive).
In the case of `Cc1cc(C)n(-c2ccc(C(=O)N3CCN(S(=O)(=O)c4ccc(Br)cc4Cl)CC3)cc2)n1`, the IC50 (Beta-galactosidase) is reported as > 80 µM (inactive).
In the case of `CCOC(=O)/C(O)=C1\C(=O)N(C)C(=O)C1c1ccc(OC)c(OC)c1` (configuration not stated), the GI50 (P388/ADR) is reported as > 31.6 µM (inactive), the GI50 (P388) is reported as > 100 µM (inactive) and the GI50 (SN12K1) is reported as > 100 µM (inactive).
With `COc1ccc2c3c([nH]c2c1)[C@@H](CO)N(C(=O)Nc1cccc(F)c1)CC31CCN(S(=O)(=O)c2ccccc2)CC1` the AC50 [1] was 23.2 µM (active) and the AC50 [2] was 21 µM (active).
With `CCOc1ccc(NC(S)=Nc2ccc(C)c([N+](=O)[O-])c2)cc1` the IC50 (Beta-galactosidase) was 131 µM (inactive).
For `Cc1ccccc1-c1nc(CN2CCC(C(=O)NCCC3=CCCCC3)CC2)c(C)o1`, the AC50 [3] was 7.7 µM (active), the AC50 [4] was 6.35 µM (active) and the AC50 [5] was 7.96 µM (active). For the same compound, the AC50 [1] was 4.21 µM (active), the CC50 [6] was > 40 µM (active) and the AC50 [2] was 25.6 µM (active).
For `Nc1ccc(/C=C/c2ccc3ncccc3c2)cc1`, the IC50 [7] was 10.4 µM (active), the IC50 [8] was > 100 µM (inactive) and the IC50 [9] was 9.32 µM (active). For the same compound, the IC50 (Caspase-3) was 22.8 µM (active).
With `CC1=C(C(=O)Nc2ccc(Cl)c(C(=O)OC(C)C)c2)SCCO1` the GI50 (P388/ADR) was 29.2 µM (inactive), the GI50 (P388) was 23.2 µM (inactive) and the GI50 (SN12K1) was 58.6 µM (inactive).
With `CCC1(O)CC(OC2CC(N(C)C)C(OC3CC4OC5CC(=O)C(C)OC5OC4C(C)O3)C(C)O2)c2c(cc3c(c2O)C(=O)c2c(O)ccc(O)c2C3=O)C1C(=O)OC` (configuration not stated) the GI50 (P388/ADR) was 0.000703 µM (active), the GI50 (P388) was 0.000368 µM (active) and the GI50 (SN12K1) was 0.00741 µM (active).
With `C[C@@H]1CCCCO[C@@H](CN(C)CC2CCCCC2)[C@H](C)CN([C@@H](C)CO)C(=O)c2cc(NC(=O)Nc3cccc4ccccc34)ccc2O1` the AC50 [10] was 47.3 µM (active) and the AC50 [11] was 5.03 µM (active).
In the case of `C[C@H](CO)N1C[C@H](C)[C@H](CN(C)S(=O)(=O)c2cccc(F)c2)Oc2ncc(C#CC3CCCCC3)cc2C1=O`, the AC50 [10] is reported as 32.3 µM (active) and the AC50 [11] is reported as 6.43 µM (active).
For `CN(C)C(CN)CC1=C(CC(CN)N(C)C)CCC1` (configuration not stated), the GI50 (P388/ADR) was > 100 µM (inactive), the GI50 (P388) was > 100 µM (inactive) and the GI50 (SN12K1) was > 100 µM (inactive).
With `CN1CCN(C(=O)/C=C/c2ccc(Cl)c(Cl)c2)CC1` the IC50 (Beta-galactosidase) was > 80 µM (inactive).
With `CCN(CC)c1ccc(NC(=O)COC(=O)c2cccs2)cc1` the IC50 (Large T antigen) was 15.2 µM (active), the IC50 [7] was 11.7 µM (active) and the IC50 [8] was > 100 µM (inactive). The IC50 [9] was 98.2 µM (active), the IC50 (Caspase-3) was 16.2 µM (active) and the IC50 (Leucine aminopeptidase) was 15.7 µM (active).
For `CC(=O)Nc1ccc(C(=O)COC(=O)C2CCCCC2)c(F)c1`, the IC50 [7] was 6.32 µM (active), the IC50 [8] was 65.6 µM (active) and the IC50 [9] was 20.4 µM (active). The IC50 (Caspase-3) was 17.5 µM (active).
In the case of `COc1cc2c(cc1OC)C(Cc1c3ccccc3cc3ccccc13)N(C)CC2` (configuration not stated), the GI50 (P388/ADR) is reported as 15.8 µM (inactive), the GI50 (P388) is reported as 18.7 µM (inactive) and the GI50 (SN12K1) is reported as 15.5 µM (inactive).
With `CNC[C@@H]1Oc2cc(C#Cc3cccc(OC)c3)ccc2S(=O)(=O)N([C@@H](C)CO)C[C@@H]1C` the AC50 [10] was 14.9 µM (active) and the AC50 [11] was 9.73 µM (active).

Reference: ChEMBL document CHEMBL1201862, “PubChem BioAssay data set” (2004)
